Data set [1] concerns anesthetized dogs. The data set can be described thus: Hemodynamic effects on anesthetized dogs, intraduodenal administration. As to conditions: 0.5 mg/kg. In kind it is in vivo, Mongrel dogs. As for the experimental part:
III. HEMODYNAMIC EFFECTS ON ANESTHETIZED DOGS Mongrel dogs are anesthetized with pentobarbital sodium (25 mg/kg i.v.). Each animal is placed under artificial respiration and a catheter is introduced into the aorta to measure the arterial pressure. The outputs of the aorta (O. Aor.), right femoral artery (O. Fem.) and left coronary artery (descending part) (O. Cor.) are measured continuously by means of electromagnetic rings. The total peripheral resistances (T.P.R.) are also calculated. […]

Data set [2] in a line: in vivo. As to conditions: rat, intravenous, male Wistar rats weighing 300 g. As for the experimental part:
The LD50 was determined by intravenous administration to male Wistar rats weighing 300 g.

The test system of data set [3] is spontaneously hypertensive rats. The data set can be described thus: Antihypertensive activity in spontaneously hypertensive rats, oral administration. Type of data set: in vivo. As to conditions: 30 mg/kg; for change in vivo at 30 mg/kg: Rattus norvegicus. As for the experimental part:
Spontaneously hypertensive rats aged between 16 and 20 weeks are used. The systolic pressure is measured by plethysmography and the heart rate is obtained from the pressure graph. The compounds studied are administered orally.

Data set [4] shares this test system. The data set can be described thus: Antihypertensive activity in spontaneously hypertensive rats, intravenous administration. In kind it is in vivo. From the text:
2. Intravenous administration
Spontaneously hypertensive rats aged between 16 and 20 weeks are used. They are anesthetized with diethyl ether, a cannula is inserted into the caudal artery to measure the arterial pressure and a catheter is inserted into the right jugular vein to administer the compounds as described previously (L. S. Watson and L. T. Ludden, New Antihypertensive Drugs, pages 87-96, Spectrum Publication, Inc., 1976).
Each curve C relates to the control group receiving only the vehicle and each curve T relates to the treated group [n (number of animals per group)=4-7]. The said groups are compared either by analysis of variance, if the variances are homogenous (Bartlett's homocedasticity test), or by Kruskall-Wallis's non-parametric test (the statistically significant results being represented as follows:
FIGS. 1-6 relate to the variation in systolic pressure, expressed in mm Hg (1 mm Hg corresponds approximately to 1.333×10^2 Pa), as a function of time, expressed in minutes, and FIGS. 1a-6a relate to the variation in diastolic pressure, also expressed in mm Hg, as a function of time, expressed in minutes, for the treated groups (curves T) compared with the corresponding control groups (curves C), the doses of products administered being as follows:
FIGS. 2 and 2a: nicardipine at 30 μg/kg i.v.,
FIGS. 3 and 3a: Example 2 at 30 μg/kg i.v.,
FIGS. 4 and 4a: Example 7 at 100 μg/kg i.v.,
FIGS. 5 and 5a: Example 8 at 300 μg/kg i.v., and
FIGS. 6 and 6a: Example 11 at 30 and 100 μg/kg i.v. (curves T1 and T2).

The test system of data set [5] is rabbit aorta. The data set can be described thus: Relaxing effect on isolated rabbit aorta contracted (depolarized) by KCl. As to conditions: Oryctolagus cuniculus; rabbit aorta depolarized by 127 mM KCl; read-out: ED50 (dose causing a 50% relaxation of the precontracted arteries). The method, then:
I. RELAXING EFFECT ON ISOLATED RABBIT AORTA CONTRACTED BY KCl
The thoracic aortae of male rabbits are removed, cut into narrow strips and placed under tension in an oxygenated survival medium. The contractions of these arteries, the amplitude of which is measured using a myograph, are induced by a 127 mM solution of KCl [R. Towart et al., Arzneim.-Forsch./Drug Res. 32, 338-346 (1982)]. The compounds studied are dissolved in a mixture of anhydrous ethanol and double distilled water (1:1) v/v, the percentage of ethanol in the baths being less than or equal to 0.3% at the end of the experiment. When the contraction plateau is reached, the compound is added to the medium in increasing doses every 15 minutes.

Setting [6] is: versus nicardipine and nifedipine.

Read-outs that look alike come from different tables or passages of the source. A value given as a limit tells only on which side of the number the result lay.

Data on one compound can be found in patent publication US4710505A, “Asymmetric heterocyclic ester derivatives of 1,4-dihydropyridine-3,5-dicarboxylic acids” (Societe de Recherches Industrielles (S.O.R.I.), priority 1985, dated 1987).

A word on the LD50: it is the dose at which mortality reaches 50%. `COC(=O)C1=C(C)NC(C)=C(C(=O)OCC2COC3(CCCCC3)O2)C1c1cccc([N+](=O)[O-])c1` (centres unmarked) [Example 2, methyl (1,4-dioxaspiro[4,5]decan-2-yl)methyl 1,4-dihydro-2,6-dimethyl-4-(3-nitrophenyl)pyridine-3,5-dicarboxylate]: in data set [1], the “% variation D.P. (diastolic pressure)” value is -41.2%, the “% variation O. Aor. (output of the aorta)” value is “+40.2%”, the “% variation O. Cor. (output of left coronary artery)” value is “+89.5%” and the “% variation O. Fem. (output of right femoral artery)” value is given as “+180.5%”. In data set [1], the “duration of the effect, D.P. (diastolic pressure)” value amounted to 240 min; the “duration of the effect, O. Aor. (output of the aorta)” value worked out at 300 min; the “duration of the effect, O. Cor. (output of left coronary artery)” value came out at 300 min; the “duration of the effect, O. Fem. (output of right femoral artery)” value was 300 min. In data set [1] (calculated), the “% variation T.P.R. (total peripheral resistances)” value is listed as -53.4% and the “duration of the effect, T.P.R. (total peripheral resistances)” value is 300 min. For the same compound, in data set [1] (setting [6]), the “cardiac, femoral and coronary outputs (in words)” value is “increased for a longer time and to a greater extent”; the “drop in total peripheral resistances (in words)” value was “greater drop in total peripheral resistances than nicardipine and nifedipine”; the “duration of drop in total peripheral resistances (in words)” value is given as “considerably longer”. Moreover, the LD50 in data set [2] came to 27.9 mg/kg. Besides, the “duration of the effect, Systolic pressure” value in data set [3] was over 24 h. The change in vivo at 30 mg/kg in data set [3] (read-out: % variation Heart rate) is 24.5%. Also, the change in vivo at 30 mg/kg in data set [3] (read-out: % variation Systolic pressure) was -45.4 ± 6.3%. For the same compound, in data set [4] (30 μg/kg i.v., versus nicardipine 30 μg/kg and nifedipine 300 μg/kg i.v.), the “drop in systolic and diastolic pressures (in words)” value was “greater drop in systolic and diastolic pressures than nicardipine at the same dose and nifedipine at 10 times the dose”. Also, in data set [4] (single i.v. dose, Ex. 2 30, Ex. 7 100, Ex. 8 300, Ex. 11 30 and 100 μg/kg, versus nicardipine and nifedipine), the “duration of the antihypertensive effect (in words)” value is “notably longer than that of nicardipine and nifedipine”. Besides, the EC50 in data set [5] worked out at 50 nM.
